Experimental data as given in PMC12516498, “Enzymatic, cell-based, and in silico evaluation of di-substituted aminomethyl-1,2,3-triazole–cinamamide hybrids as mushroom tyrosinase inhibitors” (RSC Advances, 2025).

Tests used:
[1] = DPPH free radical-scavenging assay; conditions: 200 µM compound, DPPH 110 µM, 30 min
Procedure: As described previously, radical-scavenging activity was assessed using the 2,2-diphenyl-1-picrylhydrazyl (DPPH) assay. Briefly, the mixture of different concentrations of the compounds and DPPH methanolic solution (110 µM) was shaken in the dark at room temperature for 30 min. The mixture absorbance was measured at 517 nm. Quercetin was used as the positive control.[25]

[2] = MTT assay for cell viability; type: cell-based, murine; conditions: mouse, B16F10 melanoma cells, MTT, 72 h, read-out: % Viability ± SE
Procedure: (§1) The cytotoxic activity of all derivatives was determined using the 3-(4,5-dimethylthiazol-2-yl)-2,5-diphenyltetrazolium bromide (MTT) assay. B16F10 were obtained from the Pasteur Institute of Iran (https://en.pasteur.ac.ir/). Cells (at a density of 25 000 cells per ml) were grown at 37 °C in the presence of CO2 5% in DMEM (Gibco BRL, Grand Island, NY, USA), 10% fetal bovine serum (FBS, Gibco BRL). Next, cells were seeded in a 96-well plate and incubated at 37 °C with the derivative at different concentrations for 72 h. Following treatment, cells were incubated with MTT (0.5 mg mL^−1) for 3 h. The MTT-containing medium was then removed, and 100 µL of DMSO was added to each well, mixed thoroughly with a 10-minute shake to dissolve the formazan crystals. The absorbance of each well was measured at 540 nm.[28]

B16F10 melanoma cells [3] = test: MTT assay for cell viability; type: cell-based, murine; conditions: concentrations ≤100 µM
Procedure: as §1

B16F10 melanoma cells [4] = test: Melanin content assay; type: cell-based, murine; conditions: α-MSH 100 nM, 70 µM compound, 48 h, untreated control 92 µg mL^−1
Procedure: The melanin content assay was performed according to previously reported protocols with minor modifications. Briefly, B16F10 cells were seeded in 12-well plates at a density of 50 000 cells per well. After 24 hours of incubation, 100 nM α-MSH was added to each well, followed by the addition of compound 9i five hours later. The plates were then incubated for an additional 48 hours. Subsequently, the cells were washed twice with PBS and harvested using […]. The cell pellets were dissolved in 200 µL of 1 N NaOH containing 10% DMSO and incubated at 80 °C for 2 hours to solubilize the melanin. The absorbance of the resulting supernatant was measured at […] using a microplate reader. The melanin content was quantified using a calibration curve constructed from synthetic melanin standards, measured at 405 nm. Kojic acid was used as a positive control for comparison.[29]

mushroom tyrosinase = mushroom tyrosinase (Agaricus bisporus, UniProt C7FF04); test: Enzyme kinetic study / determination of the inhibition type (Lineweaver–Burk); type: biochemical; conditions: Lineweaver–Burk plot: Km increased, Vmax unchanged
Sequence of mushroom tyrosinase (C7FF04 2-392): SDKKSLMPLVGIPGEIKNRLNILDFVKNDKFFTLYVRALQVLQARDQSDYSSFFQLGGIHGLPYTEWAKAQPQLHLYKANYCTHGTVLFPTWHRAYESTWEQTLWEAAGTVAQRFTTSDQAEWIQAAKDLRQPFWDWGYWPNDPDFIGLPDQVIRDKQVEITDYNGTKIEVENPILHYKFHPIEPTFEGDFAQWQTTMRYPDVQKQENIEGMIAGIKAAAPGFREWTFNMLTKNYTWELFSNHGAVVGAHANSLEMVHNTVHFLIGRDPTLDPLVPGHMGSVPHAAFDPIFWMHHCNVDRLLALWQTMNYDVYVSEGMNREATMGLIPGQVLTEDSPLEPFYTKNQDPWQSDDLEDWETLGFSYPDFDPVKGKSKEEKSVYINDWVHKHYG
Procedure: The substrate (L-DOPA) concentrations ranged from 0.5 to 2.8 mM according to the previously reported procedures.[24]

tyrosinase = conditions: in Fig. 1; 13–15; read-out: IC50 against Tyrosinase; cited from earlier work

Compound	DPPH radical scavenging % Inhibition at 200 µM [1]	also measured
O=C(C=Cc1ccccc1)NCc1cn(CC(=O)Nc2ccccc2)nn1 [Compound 9a, N-((1-(2-Oxo-2-(phenylamino)ethyl)-1H-1,2,3-triazol-4-yl)methyl)cinnamamide]	23.64 ± 4.63%	
O=C(C=Cc1ccccc1)NCc1cn(CC(=O)Nc2ccc(F)cc2)nn1 [Compound 9b, N-((1-(2-((4-Fluorophenyl)amino)-2-oxoethyl)-1H-1,2,3-triazol-4-yl)methyl)cinnamamide]	64.18 ± 2.31%	
O=C(C=Cc1ccccc1)NCc1cn(CC(=O)Nc2ccc(Cl)cc2)nn1 [Compound 9c, N-((1-(2-((4-Chlorophenyl)amino)-2-oxoethyl)-1H-1,2,3-triazol-4-yl)methyl)cinnamamide]	36.91 ± 0.51%	
O=C(C=Cc1ccccc1)NCc1cn(CC(=O)Nc2ccc(Br)cc2)nn1 [Compound 9d, N-((1-(2-((4-Bromophenyl)amino)-2-oxoethyl)-1H-1,2,3-triazol-4-yl)methyl)cinnamamide]	41.09 ± 4.11%	
CCc1ccc(NC(=O)Cn2cc(CNC(=O)C=Cc3ccccc3)nn2)cc1 [Compound 9e, N-((1-(2-((4-Ethylphenyl)amino)-2-oxoethyl)-1H-1,2,3-triazol-4-yl)methyl)cinnamamide]	47.36 ± 1.93%	
O=C(C=Cc1ccc(Cl)cc1)NCc1cn(CC(=O)Nc2ccccc2)nn1 [Compound 9f, 3-(4-Chlorophenyl)-N-((1-(2-oxo-2-(phenylamino)ethyl)-1H-1,2,3-triazol-4-yl)methyl)acrylamide]	46.18 ± 1.54%	
O=C(C=Cc1ccc(Cl)cc1)NCc1cn(CC(=O)Nc2ccc(F)cc2)nn1 [Compound 9g, 3-(4-Chlorophenyl)-N-((1-(2-((4-fluorophenyl)amino)-2-oxoethyl)-1H-1,2,3-triazol-4-yl)methyl)acrylamide]	45.73 ± 3.47%	
O=C(C=Cc1ccc(Cl)cc1)NCc1cn(CC(=O)Nc2ccc(Cl)cc2)nn1 [Compound 9h, 3-(4-Chlorophenyl)-N-((1-(2-((4-chlorophenyl)amino)-2-oxoethyl)-1H-1,2,3-triazol-4-yl)methyl)acrylamide]	22.82 ± 0.90%	
O=C(C=Cc1ccc(Cl)cc1)NCc1cn(CC(=O)Nc2ccc(Br)cc2)nn1 [Compound 9i, N-((1-(2-((4-Bromophenyl)amino)-2-oxoethyl)-1H-1,2,3-triazol-4-yl)methyl)-3-(4-chlorophenyl)acrylamide]	51.82 ± 2.31%	viability at 72 h, 100 µM ([2]; B16F10, 100 µM): > 80%; viability at 72 h, 150 µM ([2]; B16F10, 150 µM): 58.2 ± 3.43%; viability at 72 h, 200 µM ([2]; B16F10, 200 µM): 51.2 ± 4.34%; Cytotoxicity to B16F10 melanoma cells (in words) (B16F10 melanoma cells [3]): low cytotoxicity; Intracellular melanin content (B16F10 melanoma cells [4]): 62 µg/mL; Inhibition type (mushroom tyrosinase): competitive inhibition
CCc1ccc(NC(=O)Cn2cc(CNC(=O)C=Cc3ccc(Cl)cc3)nn2)cc1 [Compound 9j, 3-(4-Chlorophenyl)-N-((1-(2-((4-ethylphenyl)amino)-2-oxoethyl)-1H-1,2,3-triazol-4-yl)methyl)acrylamide]	82.36 ± 5.91%	
COc1ccc(NC(=O)Cn2cc(CNC(=O)C=Cc3ccc(Cl)cc3)nn2)cc1 [Compound 9k, 3-(4-Chlorophenyl)-N-((1-(2-((4-methoxyphenyl)amino)-2-oxoethyl)-1H-1,2,3-triazol-4-yl)methyl)acrylamide]	55.28 ± 0.16%	
COc1ccc(C=CC(=O)NCc2cn(CC(=O)Nc3ccccc3)nn2)cc1 [Compound 9l, 3-(4-Methoxyphenyl)-N-((1-(2-oxo-2-(phenylamino)ethyl)-1H-1,2,3-triazol-4-yl)methyl)acrylamide]	43.91 ± 4.50%	
COc1ccc(C=CC(=O)NCc2cn(CC(=O)Nc3ccc(F)cc3)nn2)cc1 [Compound 9m, N-((1-(2-((4-Fluorophenyl)amino)-2-oxoethyl)-1H-1,2,3-triazol-4-yl)methyl)-3-(4-methoxyphenyl)acrylamide]	60.18 ± 6.94%	
COc1ccc(C=CC(=O)NCc2cn(CC(=O)Nc3ccc(Cl)cc3)nn2)cc1 [Compound 9n, N-((1-(2-((4-Chlorophenyl)amino)-2-oxoethyl)-1H-1,2,3-triazol-4-yl)methyl)-3-(4-methoxyphenyl)acrylamide]	68.64 ± 7.33%	
COc1ccc(C=CC(=O)NCc2cn(CC(=O)Nc3ccc(Br)cc3)nn2)cc1 [Compound 9o, N-((1-(2-((4-Bromophenyl)amino)-2-oxoethyl)-1H-1,2,3-triazol-4-yl)methyl)-3-(4-methoxyphenyl)acrylamide]	57.09 ± 6.17%	
CCc1ccc(NC(=O)Cn2cc(CNC(=O)C=Cc3ccc(OC)cc3)nn2)cc1 [Compound 9p, N-((1-(2-((4-Ethylphenyl)amino)-2-oxoethyl)-1H-1,2,3-triazol-4-yl)methyl)-3-(4 methoxyphenyl)acrylamide]	40.73 ± 5.91%	
COc1ccc(C=CC(=O)NCc2cn(CC(=O)Nc3ccc(OC)cc3)nn2)cc1 [Compound 9q, 3-(4-Methoxyphenyl)-N-((1-(2-((4-methoxyphenyl)amino)-2-oxoethyl)-1H-1,2,3-triazol-4-yl)methyl)acrylamide]	61.51 ± 3.74%	
NC(=S)N/N=C/c1ccc(OCc2cn(Cc3ccc(F)cc3)nn2)cc1 [D]		IC50 (tyrosinase): 0.22 µM
Clc1ccc(Cn2cc(COc3ccc(-c4nc5ccccc5[nH]4)cc3)nn2)cc1Cl [E]		IC50 (tyrosinase): 9.42 µM
O=c1cc(Cn2cc(Oc3ccc4ccccc4c3)nn2)occ1O [F]		IC50 (tyrosinase): 0.3 µM
